From US11246834B2, “Nutraceutical or pharmaceutical composition for use in the treatment of polycystic ovary syndrome or of diseases or disorders related thereto” (S&R FARMACEUTICI S.P.A., priority 2016, dated 2022) come the findings set out here.

For assay [1], the system named is HEK293 cells. Kind of assay: Cell count in Burker's chamber (proliferation) under hydrogen peroxide oxidative stress. It is filed as cell-based, Human. As to conditions: HEK293, 300 μM hydrogen peroxide; 40 μM myoinositol + 100 μM D-chiro inositol and/or 10 μM resveratrol. As for the experimental part: (§1) The measures have been performed in triplicate. Left (MTT) and (cell count). Human embryonic kidney HEK293 cells were grown in adherence in a growth medium consisting of DMEM supplemented with 10% fetal bovine serum (FBS) for 24 hours before being treated with 300 μM hydrogen peroxide in the presence of inositols (MI-D-chirol, 40 μM myoinositol and 100 μM D-chiro inositol, molar ratio MI/D-ChiroI=0.4) or resveratrol (10 μM) or in a combination of inositol and resveratrol. The effects of treatments on cellular metabolism were evaluated by the MTT test, while on the proliferation by cell count in Burker's chamber and all effects were compared with growing cells under controlled conditions (DMEN+10% FBS). The inositol concentrations were chosen based on the myo-inositol (MI) plasma concentration (26), and considering the molar ratio MI/D-Chirol=0.4 according to the invention, while the resveratrol concentration (10 μM) was chosen considering the plasma concentration expected after a treatment regime with resveratrol supported on hydroxide such as that from […]. […] Oxidative stress aggravates the pathological state of PCOS along with hormonal imbalance (27).

In assay [2] the test system is HEK293 cells. The assay is described as follows: MTT test of cellular metabolism under hydrogen peroxide oxidative stress. Format: cell-based, Human. As to conditions: HEK293, 300 μM hydrogen peroxide; 40 μM myoinositol + 100 μM D-chiro inositol and/or 10 μM resveratrol. As for the experimental part:
as §1
In general terms: Formazan colour is commonly taken as a measure of viable cells.

Turning to `Oc1ccc(C=Cc2cc(O)cc(O)c2)cc1` [resveratrol], the “effect on the anti-proliferative effect of oxidative stress, cell number (cell count)” value in assay [1] is given as “only partially counteracted”. Moreover, the “effect on the anti-proliferative effect of oxidative stress, metabolic activity (MTT)” value in assay [2] is “only partially counteracted”.
